Key:
Type in all cases: cell-based, human
FaDu cells [1] = assay: Inhibition assay of cancer cell sphere-forming ability (Test Example 2), FaDu; details: read-out: IC50 (μM) FaDu, concentration for 50% inhibition of cell proliferation (Sphere IC50 value)
Protocol: (§1) HCT-116 cells (derived from human colon adenocarcinoma), HT-29 cells (derived from human colon cancer), FaDu cells (derived from human hypopharynx cancer) were obtained from American Type Culture Collection (ATCC). […] HCT-116 cells, HT-29 cells, and FaDu cells were seeded onto 384 Well Black Clear Bottom Ultra-Low Attachment Microplate (Corning Cat. […] A test substance was added so that the final concentration of DMSO is 0.1%, and then cultured for 4 days. […] A test shown in Test example 2 was carried out for compounds obtained in the Examples.

HT-29 cells [2] = assay: Proliferation inhibition assay of cancer cells (Test Example 1), HT-29; details: read-out: IC50 (μM) HT, concentration for 50% inhibition of cell proliferation (Bulk IC50 value)
Protocol: (§2) HCT-116 cells (derived from human colon adenocarcinoma), HT-29 cells (derived from human colon cancer), and FaDu cells (derived from human hypopharynx cancer) were obtained from American Type Culture Collection (ATCC). […] After cells were seeded at 300-600 cells/well onto black μClear-plate 384 well (Greiner bio-one Cat. No. 781091), a test substance was added such that the final concentration of DMSO is 0.1%, and cultured for 4 days. […] A test shown in Test example 1 was carried out for compounds obtained in the Examples.

HCT-116 cells [3] = assay: Proliferation inhibition assay of cancer cells (Test Example 1), HCT-116; details: read-out: IC50 (μM) HCT, concentration for 50% inhibition of cell proliferation (Bulk IC50 value)
Protocol: as §2

HT-29 cells [4] = assay: Inhibition assay of cancer cell sphere-forming ability (Test Example 2), HT-29; details: read-out: IC50 (μM) HT, concentration for 50% inhibition of cell proliferation (Sphere IC50 value)
Protocol: as §1

HCT-116 cells [5] = assay: Inhibition assay of cancer cell sphere-forming ability (Test Example 2), HCT-116; details: read-out: IC50 (μM) HCT, concentration for 50% inhibition of cell proliferation (Sphere IC50 value)
Protocol: as §1

FaDu cells [6] = assay: Proliferation inhibition assay of cancer cells (Test Example 1), FaDu; details: read-out: IC50 (μM) FaDu, concentration for 50% inhibition of cell proliferation (Bulk IC50 value)
Protocol: as §2

[7] = Homo sapiens, FaDu, 96 h, FaDu cells, Ultra-Low Attachment plate, serum-free DMEM/F12 with B27, EGF, bFGF, insulin, 4 days, Cell Titer-Glo
[8] = Homo sapiens, HT-29, 96 h, HT-29 cells, cultured for 4 days, Cell Titer-Glo
[9] = Homo sapiens, HCT-116, 96 h, HCT-116 cells, cultured for 4 days, Cell Titer-Glo
[10] = Homo sapiens, HT-29, 96 h, HT-29 cells, Ultra-Low Attachment plate, serum-free DMEM/F12 with B27, EGF, bFGF, insulin, 4 days, Cell Titer-Glo
[11] = Homo sapiens, HCT-116, 96 h, HCT-116 cells, Ultra-Low Attachment plate, serum-free DMEM/F12 with B27, EGF, bFGF, insulin, 4 days, Cell Titer-Glo
[12] = Homo sapiens, FaDu, 96 h, FaDu cells, cultured for 4 days, Cell Titer-Glo
[13] = HT-29 cells, cultured for 4 days, Cell Titer-Glo
[14] = HT-29 cells, Ultra-Low Attachment plate, serum-free DMEM/F12 with B27, EGF, bFGF, insulin, 4 days, Cell Titer-Glo

SMILES	IC50 (FaDu cells [1]; [7])	IC50 (HT-29 cells [2]; [8])	IC50 (HCT-116 cells [3]; [9])	IC50 (HT-29 cells [4]; [10])	IC50 (HCT-116 cells [5]; [11])	IC50 (FaDu cells [6]; [12])	also measured
CC(O)c1cc2c(s1)C(=O)c1cccnc1C2=O (stereo not drawn) [Example 2, 2-(1-hydroxyethyl)thieno[2,3-g]quinoline-4,9-dione]	0.12 µM	0.86 µM	0.08 µM	0.55 µM	0.23 µM	0.1 µM	–
CN(C)C(=O)c1cc2c(s1)C(=O)c1cccnc1C2=O [Example 3, N,N-dimethyl-4,9-dioxo-4,9-dihydrothieno[2,3-g]quinoline-2-carboxamide]	0.05 µM	0.56 µM	0.06 µM	0.43 µM	0.05 µM	0.07 µM	–
O=C1c2cc(CN3CCOCC3)sc2C(=O)c2cccnc21 [Example 4, 2-(morpholin-4-ylmethyl)thieno[2,3-g]quinoline-4,9-dione]	0.34 µM	0.68 µM	0.57 µM	0.63 µM	0.55 µM	0.46 µM	–
CCN(Cc1cc2c(s1)C(=O)c1cccnc1C2=O)C1CCCCC1 [Example 5, 2-{[cyclohexyl(ethyl)amino]methyl}thieno[2,3-g]quinoline-4,9-dione]	0.5 µM	0.92 µM	0.45 µM	0.57 µM	0.39 µM	0.54 µM	–
CCN(CCOC)Cc1cc2c(s1)C(=O)c1cccnc1C2=O [Example 6, 2-{[ethyl(2-methoxyethyl)amino]methyl}thieno[2,3-g]quinoline-4,9-dione]	0.33 µM	0.93 µM	0.39 µM	0.63 µM	0.2 µM	0.41 µM	–
CCN(Cc1ccncc1)Cc1cc2c(s1)C(=O)c1cccnc1C2=O [Example 7, 2-{[ethyl(pyridin-4-ylmethyl)amino]methyl}thieno[2,3-g]quinoline-4,9-dione]	0.36 µM	–	0.4 µM	–	0.51 µM	0.4 µM	IC50 (HT-29 cells [2]; [13]): 2.64 µM; IC50 (HT-29 cells [4]; [14]): 3.04 µM
CCN(Cc1ccncc1)Cc1cc2c(s1)C(=O)c1cccnc1C2=O [Example 8, 2-{[ethyl(pyridin-4-ylmethyl)amino]methyl}thieno[2,3-g]quinoline-4,9-dione]	–	–	–	–	–	–	IC50 (FaDu cells [1]; FaDu cells, Ultra-Low Attachment plate, serum-free DMEM/F12 with B27, EGF, bFGF, insulin, 4 days, Cell Titer-Glo): 0.32 µM; IC50 (HT-29 cells [2]; [13]): 0.83 µM; IC50 (HCT-116 cells [3]; HCT-116 cells, cultured for 4 days, Cell Titer-Glo): 0.38 µM; IC50 (HT-29 cells [4]; [14]): 0.6 µM; IC50 (HCT-116 cells [5]; HCT-116 cells, Ultra-Low Attachment plate, serum-free DMEM/F12 with B27, EGF, bFGF, insulin, 4 days, Cell Titer-Glo): 0.41 µM; IC50 (FaDu cells [6]; FaDu cells, cultured for 4 days, Cell Titer-Glo): 0.37 µM
CCN(Cc1cc2c(o1)C(=O)c1cccnc1C2=O)C(=O)CC(C)C [Example 9, N-[(4,9-dioxo-4,9-dihydrofuro[2,3-g]quinolin-2-yl)methyl]-N-ethyl-3-methylbutanamide]	0.1 µM	> 10 µM	0.53 µM	0.61 µM	0.28 µM	0.6 µM	–
CCN(Cc1cc2c(o1)C(=O)c1cccnc1C2=O)S(=O)(=O)CC(C)C [Example 10, N-[(4,9-dioxo-4,9-dihydrofuro[2,3-g]quinolin-2-yl)methyl]-N-ethyl-2-methylpropane-1-sulfonamide]	0.09 µM	6.14 µM	0.5 µM	0.53 µM	0.38 µM	0.5 µM	–
CCOC(=O)N(CC)Cc1cc2c(o1)C(=O)c1cccnc1C2=O [Example 11, ethyl [(4,9-dioxo-4,9-dihydrofuro[2,3-g]quinolin-2-yl)methyl]ethylcarbamate]	0.28 µM	3.85 µM	0.49 µM	0.71 µM	0.46 µM	0.45 µM	–
O=C1c2cnccc2C(=O)c2sc(CO)cc21 [Example 14, 2-(1-hydroxymethyl)thieno[2,3-g]isoquinoline-4,9-dione]	0.02 µM	0.48 µM	0.06 µM	0.09 µM	0.09 µM	0.03 µM	–
CCOC(c1cc2c(s1)C(=O)c1ccncc1C2=O)C1CC1 (stereo not drawn) [Example 17, 2-[cyclopropyl(ethoxy)methyl]thieno[2,3-g]isoquinoline-4,9-dione]	0.05 µM	0.87 µM	0.41 µM	0.54 µM	0.55 µM	0.84 µM	–
O=C1c2cnccc2C(=O)c2sc(COCc3ccccc3)cc21 [Example 18, 2-[(benzyloxy)methyl]thieno[2,3-g]isoquinoline-4,9-dione]	0.63 µM	> 10 µM	1 µM	> 10 µM	5.71 µM	0.57 µM	–
O=C1c2ccncc2C(=O)c2c(C(=O)N3CCOCC3)csc21 [Example 22, 3-(morpholin-4-ylcarbonyl)thieno[2,3-g]isoquinoline-4,9-dione]	0.31 µM	0.81 µM	0.48 µM	0.16 µM	0.5 µM	0.44 µM	–
CC(c1cc2c(s1)C(=O)c1ccncc1C2=O)N1CCOCC1 (stereo not drawn) [Example 23, 2-[1-(morpholin-4-yl)ethyl]thieno[2,3-g]isoquinoline-4,9-dione]	0.04 µM	0.58 µM	0.1 µM	0.48 µM	0.31 µM	0.03 µM	–
CCN(Cc1cc2c(s1)C(=O)c1ccncc1C2=O)C1CCCCC1 [Example 25, 2-{[Cyclohexyl(ethyl)amino]methyl}thieno[2,3-g]isoquinoline-4,9-dione]	0.06 µM	0.96 µM	0.69 µM	< 0.01 µM	0.8 µM	0.46 µM	–
O=C1c2cnccc2C(=O)c2sc(CN(CC(F)F)C(=O)C3CCCCC3)cc21 [Example 28, N-(2,2-difluoroethyl)-N-((4,9-dioxo-4,9-dihydrothieno[2,3-g]isoquinolin-2-yl)methyl)cyclohexanecarboxamide]	0.09 µM	0.63 µM	0.47 µM	0.59 µM	0.57 µM	0.08 µM	–
O=C1c2cnccc2C(=O)c2sc(N3CCOCC3)cc21 [Example 32, 2-(morpholin-4-yl)thieno[2,3-g]isoquinoline-4,9-dione]	1.25 µM	> 10 µM	6.56 µM	> 10 µM	7.7 µM	2.15 µM	–
COc1c2ccncc2c(OC)c2sc(C(C)O)cc12 (stereo not drawn) [Example 34, 1-(4,9-dimethoxythieno[3,2-g]isoquinolin-2-yl)ethanol]	0.04 µM	0.64 µM	0.07 µM	0.5 µM	0.24 µM	0.04 µM	–
O=C1c2ccncc2C(=O)c2sc(CNCC(F)F)cc21 [Example 35, 2-{[(2,2-Difluoroethyl)amino]methyl}thieno[3,2-g]isoquinoline-4,9-dione]	–	–	–	–	–	–	IC50 (FaDu cells [1]; Homo sapiens, FaDu, 96 h): 0.04 µM; IC50 (HT-29 cells [2]; Homo sapiens, HT-29, 96 h): 0.6 µM; IC50 (HCT-116 cells [3]; Homo sapiens, HCT-116, 96 h): 0.08 µM; IC50 (HT-29 cells [4]; Homo sapiens, HT-29, 96 h): 0.39 µM; IC50 (HCT-116 cells [5]; Homo sapiens, HCT-116, 96 h): 0.27 µM; IC50 (FaDu cells [6]; Homo sapiens, FaDu, 96 h): 0.05 µM
